ChEMBL document CHEMBL4359880, “PROTACs and Targeted Protein Degradation for Treating ALK-Mediated Cancers” (2019)

Legend:
SU-DHL-1 [1] = test: Cytotoxicity against human SUDHL1 cells assessed as cell growth at 12 nM incubated for 2.5 days by CCk8 assay relative to control; type: functional; details: SU-DHL-1, 60 h
SU-DHL-1 [2] = test: Cytotoxicity against human SUDHL1 cells assessed as cell growth at 40 nM incubated for 2.5 days by CCk8 assay relative to control; type: functional; details: SU-DHL-1, 60 h
SU-DHL-1 [3] = test: Cytotoxicity against human SUDHL1 cells assessed as cell growth at 100 nM incubated for 2.5 days by CCk8 assay relative to control; type: functional; details: SU-DHL-1, 60 h
[4] = target: T1, von Hippel-Lindau disease tumor suppressor/ALK tyrosine kinase receptor (Homo sapiens) (UniProt Q9UM73+P40337); test: Protac activity at VHL/ALK in human SUDHL1 cells assessed as increase in degradation of ALK at 30 nM by Western blot analysis relative to control; type: cell-based
T1 sequence (P40337 whole entry partner): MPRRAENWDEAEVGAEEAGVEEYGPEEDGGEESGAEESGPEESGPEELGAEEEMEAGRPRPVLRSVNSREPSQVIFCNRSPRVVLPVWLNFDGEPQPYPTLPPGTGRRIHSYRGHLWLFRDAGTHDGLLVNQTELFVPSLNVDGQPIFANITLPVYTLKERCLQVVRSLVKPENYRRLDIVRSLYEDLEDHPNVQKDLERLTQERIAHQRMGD
T1 sequence (Q9UM73 19-1620 limits assumed): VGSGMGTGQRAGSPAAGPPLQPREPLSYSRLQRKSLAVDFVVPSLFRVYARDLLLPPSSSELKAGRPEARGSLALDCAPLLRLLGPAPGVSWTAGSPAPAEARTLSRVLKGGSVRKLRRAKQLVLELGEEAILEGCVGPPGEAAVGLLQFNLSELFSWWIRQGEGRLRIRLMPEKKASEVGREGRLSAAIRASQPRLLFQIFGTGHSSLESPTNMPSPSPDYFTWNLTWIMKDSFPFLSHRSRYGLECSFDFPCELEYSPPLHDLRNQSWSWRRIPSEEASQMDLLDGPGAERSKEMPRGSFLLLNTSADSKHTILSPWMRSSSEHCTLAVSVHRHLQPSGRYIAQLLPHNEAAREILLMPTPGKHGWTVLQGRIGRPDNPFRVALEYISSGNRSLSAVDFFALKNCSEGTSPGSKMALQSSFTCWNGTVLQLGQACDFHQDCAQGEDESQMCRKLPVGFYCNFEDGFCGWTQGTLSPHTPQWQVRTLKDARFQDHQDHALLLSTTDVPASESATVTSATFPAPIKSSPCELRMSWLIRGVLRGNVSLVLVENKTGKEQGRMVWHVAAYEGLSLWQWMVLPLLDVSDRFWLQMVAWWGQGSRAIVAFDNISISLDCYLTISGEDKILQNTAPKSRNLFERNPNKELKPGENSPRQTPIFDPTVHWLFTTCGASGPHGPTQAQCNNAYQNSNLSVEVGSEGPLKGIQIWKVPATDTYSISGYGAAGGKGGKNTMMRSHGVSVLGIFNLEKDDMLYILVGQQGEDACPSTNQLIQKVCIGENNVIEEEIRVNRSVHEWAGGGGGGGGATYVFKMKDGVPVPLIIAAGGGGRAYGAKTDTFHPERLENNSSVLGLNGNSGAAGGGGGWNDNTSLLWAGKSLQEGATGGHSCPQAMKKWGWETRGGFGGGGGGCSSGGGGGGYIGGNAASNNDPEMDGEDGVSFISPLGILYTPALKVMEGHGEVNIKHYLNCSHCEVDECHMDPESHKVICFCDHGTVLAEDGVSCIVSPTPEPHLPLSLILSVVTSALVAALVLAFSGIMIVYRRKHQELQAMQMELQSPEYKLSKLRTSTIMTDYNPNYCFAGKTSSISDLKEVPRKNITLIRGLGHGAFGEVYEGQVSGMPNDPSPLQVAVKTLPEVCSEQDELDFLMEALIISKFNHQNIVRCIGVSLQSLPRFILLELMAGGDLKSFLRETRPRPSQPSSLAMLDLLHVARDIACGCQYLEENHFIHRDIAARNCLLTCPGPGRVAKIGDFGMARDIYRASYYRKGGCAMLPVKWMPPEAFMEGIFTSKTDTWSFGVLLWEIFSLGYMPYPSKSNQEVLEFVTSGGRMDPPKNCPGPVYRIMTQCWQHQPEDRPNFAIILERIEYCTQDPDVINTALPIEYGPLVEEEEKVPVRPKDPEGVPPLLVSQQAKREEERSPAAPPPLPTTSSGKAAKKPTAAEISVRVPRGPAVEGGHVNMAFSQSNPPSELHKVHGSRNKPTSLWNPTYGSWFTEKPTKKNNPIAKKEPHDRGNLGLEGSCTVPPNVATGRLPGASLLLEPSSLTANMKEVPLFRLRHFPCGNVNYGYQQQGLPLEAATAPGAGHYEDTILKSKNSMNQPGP

[5] = target: T1, von Hippel-Lindau disease tumor suppressor/ALK tyrosine kinase receptor (Homo sapiens); test: Protac activity at VHL/ALK in human NCI-H3122 cells assessed as increase in degradation of ALK at 500 nM by Western blot analysis relative to control; type: cell-based

Activity [4] [%] | Activity [5] [%] | SMILES | growth, % of control at 0.012 µM (SU-DHL-1 [1]) [%] | growth, % of control at 0.04 µM (SU-DHL-1 [2]) [%] | growth, % of control at 0.1 µM (SU-DHL-1 [3]) [%]
> 80 | – | Cc1cc(Nc2ncc(Cl)c(Nc3ccccc3S(=O)(=O)C(C)C)n2)c(OC(C)C)cc1C1CCN(CC(=O)NCCNc2cccc3c2C(=O)N(C2CCC(=O)NC2=O)C3=O)CC1 (centres undefined) | 80.6 | 30.5 | 2.1
– | > 80 | Cc1cc(Nc2ncc(Cl)c(Nc3ccccc3S(=O)(=O)C(C)C)n2)c(OC(C)C)cc1C1CCN(C(=O)CCCC(=O)N[C@H](C(=O)N2C[C@H](O)C[C@H]2C(=O)N[C@@H](C)c2ccc(-c3scnc3C)cc2)C(C)(C)C)CC1 | – | – | –
> 80 | – | Cc1cc(Nc2ncc(Cl)c(Nc3ccccc3S(=O)(=O)C(C)C)n2)c(OC(C)C)cc1C1CCN(CC(=O)NCCOCCOCCOCCOCCNc2cccc3c2C(=O)N(C2CCC(=O)NC2=O)C3=O)CC1 (centres undefined) | 97.7 | 67 | 3.5
> 80 | – | Cc1cc(Nc2ncc(Cl)c(Nc3ccccc3S(=O)(=O)C(C)C)n2)c(OC(C)C)cc1C1CCN(CC(=O)NCCOCCOCCOCCOCCOCCNc2cccc3c2C(=O)N(C2CCC(=O)NC2=O)C3=O)CC1 (centres undefined) | 94.5 | 47.5 | 3.9
– | > 80 | Cc1cc(Nc2ncc(Cl)c(Nc3ccccc3S(=O)(=O)C(C)C)n2)c(OC(C)C)cc1C1CCN(C(=O)COCCOCC(=O)N[C@H](C(=O)N2C[C@H](O)C[C@H]2C(=O)N[C@@H](C)c2ccc(-c3scnc3C)cc2)C(C)(C)C)CC1 | – | – | –
